# Results: patent US9017963B2, “Method for detecting microorganisms” (Woundchek Laboratories (US), Inc., priority 2002, dated 2015)
# *: point of attachment. Dabsyl = label, CN(C)c1ccc(/N=N/c2ccc(S(=O)(=O)*)cc2)cc1; EDANS = O=S(=O)(O)c1cccc2c(NCCN*)cccc12
# Experiments:
# S. epidermidis = assay: Indolyl ester glass microfiber filter sensor, S. epidermidis; assay type: biochemical, Staphylococcus epidermidis; conditions: substrates bound to glass microfiber filter; FIG. 17B
# Excerpt: Hydrophobic interactions make use of the non-ionic packing that occurs in a polar solvent such as water and such interactions can be used in the production of biosensors for detection of pathogens. The substrates 5-bromo-4-chloro-3indolyl butyrate and 5-bromo-4-chloro-3indolyl caprylate can be spotted onto a glass microfiber filter to make a sensor. Upon spotting the filter with a small amount of Staphylococcus (aureus or epidermidis) culture medium the color of the filter will turn blue in approximately 15 minutes.
# S. pyogenes = assay: Indolyl ester glass microfiber filter sensor, S. pyogenes; assay type: biochemical, Streptococcus pyogenes; conditions: substrates bound to glass microfiber filter; FIG. 17B
# lipase from S. aureus = assay: Lipase assay, S. aureus culture supernatant; assay type: biochemical, Staphylococcus aureus; conditions: 20 mM Tris (pH 8.3) with 1 mM ZnSO4, 20% methanol, 20% DMSO, or 10 mM Triton X-100 vs control
# Protocol: (§1) A culture of each of the following bacterial species was grown to saturation in Brain Heart Infusion (BHI) broth at 37° C. with vigorous shaking (˜200 rpm), using methods that are standard in the art: Staphylococcus aureus; Staphylococcus epidermidis; Serratia marcescens; Streptococcus salivarius; Escherichia coli; Pseudomonas aeruginosa; and Enterococcus faecalis. After overnight growth (to saturation), a 1 mL sample of each culture was obtained, and the cells were removed from the culture supernatant by centrifugation at 12,000×g for 5 minutes. The remaining culture supernatants were stored on ice until required (less than one hour). The bacteria were assayed for the presence or absence of specific enzymes as described below. Alternatively, the bacterial cells are not separated from the culture supernatant, but rather, the assay is carried out on a sample containing the cells still in suspension in their culture broth.
# To test for the presence or absence of lipases secreted by bacteria, the lipase substrate p-nitrophenyl caprate, obtained from Sigma (Catalog No.: N-0252). This lipase substrate consists of capric acid, a ten-carbon lipid molecule, esterified with the dye para nitrophenol (detectable label) as described above. The substrate was dissolved in isopropyl alcohol at a concentration of 8 mM (2.35 mg/mL). A reaction buffer containing 20 mM Tris (pH 8.5) was also prepared.
# To perform the lipase assay, 80 μL of reaction buffer, 10 μL of culture supernatant from each bacteria species described in Example 2, and 10 μL of assay substrate were added to a well of a 96-well microplate. Each bacterial species was assayed individually, and the assays were performed in triplicate. The 96-well plate was incubated at 37° C. for 60 minutes. At 5 minute intervals during the incubation period, absorbance at 415 nm, indicating modification of the enzyme by a lipase secreted by the cells, was automatically measured using a BioRad Benchmark Microplate reader.
# However, it is known that bacterial lipases do show strong substrate specificity with regard to the chain length of the fatty acid they hydrolyze (Van Kampen et al., BBA, 1544: 229, 2001) and to the location in a lipid layer. The degree that the environment of the substrate affects the efficiency of hydrolysis depends on the particular enzyme. To test this for the lipase from S. aureus, the above-described lipase assay was performed in the presence of several detergent and solvent additives. The reaction buffer consisted of 20 mM Tris (pH 8.3) with 1 mM ZnSO4 added, plus either nothing additional (control), 20% methanol, 20% DMSO, or 10 mM Triton X-100.
# [1] = system: autolysins (Enterococcus faecalis); assay: Autolysin assay, E. faecalis supernatant; assay type: biochemical; conditions: 20° C., 7 hours
# Protocol: as §1, with “Alternatively, the bacterial cells are not separated from the culture supernatant, but rather, the assay is carried out on a sample containing the cells still in suspension in their culture broth.” left out
# (§2) To test for the presence of autolysins in bacterial cell culture supernatants, the synthetic autolysin substrate p-nitrophenyl-N-acetyl-b-D-glucosaminide (PNP-AGA), a substrate containing a dye that is detected at […] when the substrate is modified, was dissolved in 50% DMSO to a final concentration of 20 mM to form a substrate solution. Modification of this substrate can be detected by measuring the change in absorbance at 405 nm. […] The progress of modification of the labeled substrate was monitored by absorbance at 405 nm.
# [2] = system: other bacterial culture supernatants of Example 2; assay: Autolysin assay, other culture supernatants; assay type: biochemical; conditions: other culture supernatants vs water control; 20° C., 7 hours
# Protocol: as §1, with “Alternatively, the bacterial cells are not separated from the culture supernatant, but rather, the assay is carried out on a sample containing the cells still in suspension in their culture broth.” left out
# as §2
# [3] = system: beta-galactosidase (Streptococcus salivarius); assay: Beta-galactosidase assay, S. salivarius supernatant; assay type: biochemical; conditions: 37° C.
# Protocol: as §1
# (§3) To determine the presence or absence of bacteria in a sample, mid-log phase bacterial supernatants were obtained as described in Example 2. A substrate solution containing the labeled synthetic substrate ortho-nitrophenyl-b-D-galactopyranoside (ONPG) dissolved in 50% DMSO to a concentration of 20 mM was prepared. […] The samples were incubated at 37° C. and absorbance at 420 nm was measured hourly.
# [4] = system: beta-galactosidase (other bacterial supernatants of Example 2); assay: Beta-galactosidase assay, other species; assay type: biochemical; conditions: 37° C.
# Protocol: as §1, §3
# [5] = system: Serratia marcescens specific protease; assay: Serratia protease FRET assay, S. marcescens culture; assay type: biochemical
# Excerpt: A Serratia marcescens specific protease was identified based on a homology search using the sequence of a known sspB protease found in the Staphylococcus species. This protease has homology to the cysteine protease precursor (sspB) protein of Staphylococcus aureus. The corresponding Serratia protease has not been previously characterized. To test for the presence of the specific protease in a bacterial culture, a short target peptide was designed. This target peptide was derived from a polypeptide substrate previously shown to be cleaved by S. aureus sspB (Chan and Foster, J. Bacteriology 180:6232-6241, 1998). This peptide was capped by a fluorescent dye molecule on one end and by an associated chromophore molecule on the other end. If the absorption band of the chromophore has sufficient overlap with the absorbance band associated with the fluorescence of the dye molecule, the observed fluorescence will be quenched. This phenomenon is known as fluorescence resonance energy transfer (FRET) and can be used to determine the distance between the FRET donor and acceptor molecules. Upon cleavage of the peptide the fluorescent indicator is released from the proximity of the quencher and the fluorescence increase is measured. Thus, the presence or absence of a protease that targets the peptide in the sample can be determined by detecting fluorescence emitted by the cleaved peptide. […]
# [6] = system: Staphylococcus aureus, Listeria monocytogenes, Pseudomonas aeruginosa, Enterococcus faecalis, Streptococcus salivarius, Escherichia coli cultures; assay: Serratia protease FRET assay, other bacterial pathogen samples; assay type: biochemical; conditions: other bacterial samples vs water control; same conditions
# Protocol: The specificity of the protease for Serratia marcescens is was determined by detecting cleavage of a target polypeptide, using FRET, by the protease in a number of different bacterial pathogen samples. The bacterial pathogen samples used in this study were all taken from overnight cultures grown in brain heart […] (BHI) media at 37° C., as described herein. The bacterial pathogens chosen for this study were: Staphylococcus aureus, Listeria monocytogenes, Pseudomonas aeruginosa, Enterococcus faecalis, Streptococcus salivarius, Serratia marcescens, and Escherichia coli. The target peptide substrate used to test for the Serratia marcescens specific protease was as follows: Dabsyl-NEAIQEDQVQYE-Edans (SEQ ID NO: 2), and was prepared using standard methods known to one skilled in the art. A substrate solution containing 1 mg/mL to 5 mg/mL of target peptide substrate in 1:1 water/dimethylsulfoxide (DMSO) was prepared. The reaction buffer used was 20 mM Tris (pH 7.5) with 200 mM NaCl. […] The narrow band filters in the fluorimeter were centered at 305 nm for excitation and 485 nm for fluorescence emission readings. The samples were incubated at 37° C. and the fluorescence of each sample was measured at time points taken every 10 minutes. […]
# [7] = system: Serratia marcescens specific protease; assay: Biosensor: target peptide bound to Cell Debris Remover, exposed to Serratia marcescens extract; assay type: biochemical
# Excerpt: An example of a biosensor for the detection of a Serratia marcescens (S. marcescens) specific protease, and therefore, for the detection of Serratia marcescens now follows. The Serratia marcescens specific target peptide substrate was bound to a surface with a weak positive charge, such as fibrous cellulose lightly substituted with DEAE (Cell Debris Remover, Whatman, Inc.).
compound,measurement,setting,value
CCCCCCCC(=O)Oc1c[nH]c2ccc(Br)c(Cl)c12 [5-bromo-4-chloro-3indolyl caprylate],detection on filter sensor (dark spot),S. epidermidis,dark spot corresponding to S. epidermidis indicates detection
same,detection on filter sensor,S. pyogenes,did not detect S. pyogenes
CCCC(=O)Oc1c[nH]c2ccc(Br)c(Cl)c12 [5-bromo-4-chloro-3indolyl butyrate],detection on filter sensor (dark spot),S. epidermidis,dark spot corresponding to S. epidermidis indicates detection
same,detection on filter sensor,S. pyogenes,did not detect S. pyogenes
C[S+](C)[O-] [DMSO],effect of additive on hydrolysis rate of p-nitrophenyl caprate,lipase from S. aureus,hydrolysis rate was found to increase
"CC(=O)N[C@H]1[C@H](Oc2ccc([N+](=O)[O-])cc2)O[C@H](CO)[C@@H](O)[C@@H]1O [PNP-AGA, p-nitrophenyl-N-acetyl-b-D-glucosaminide]",modification of substrate (change in absorbance at 405 nm),[1],"reacted with the substrate, giving rise to a color change"
same,modification of substrate (change in absorbance at 405 nm),[2],None of the other culture supernatants were distinguishable from the water control
Triton X-100,effect of additive on hydrolysis rate of p-nitrophenyl caprate,lipase from S. aureus,hydrolysis rate was found to increase
CO [methanol],effect of additive on hydrolysis rate of p-nitrophenyl caprate,lipase from S. aureus,hydrolysis rate was found to increase
"O=[N+]([O-])c1ccccc1O[C@@H]1O[C@H](CO)[C@H](O)[C@H](O)[C@H]1O [ONPG, ortho-nitrophenyl-b-D-galactopyranoside]",reaction with substrate (absorbance at 420 nm),[3],reacted with the substrate
same,reaction with substrate (absorbance at 420 nm),[4],other species did not
"O=C(O)CN(CCN(CC(=O)O)CC(=O)O)CC(=O)O [EDTA, ethylenediaminetetraacetic acid]",effect of EDTA on protease activity (relative fluorescence of the target peptide),"[5]; One mM EDTA added to 20 mM Tris (pH 7.5) with 200 mM NaCl, Serratia culture",No reduction in activity
Dabsyl-NEAIQEDQVQYE-Edans (Dabsyl-NEAIQEDQVQYE-{EDANS}; SMILES CC[C@H](C)[C@H](NC(=O)[C@H](C)NC(=O)[C@H](CCC(=O)O)NC(=O)[C@H](CC(N)=O)NS(=O)(=O)c1ccc(/N=N/c2ccc(N(C)C)cc2)cc1)C(=O)N[C@@H](CCC(N)=O)C(=O)N[C@@H](CCC(=O)O)C(=O)N[C@@H](CC(=O)O)C(=O)N[C@@H](CCC(N)=O)C(=O)N[C@H](C(=O)N[C@@H](CCC(N)=O)C(=O)N[C@@H](Cc1ccc(O)cc1)C(=O)N[C@@H](CCC(=O)O)C(=O)NCCNc1cccc2c(S(=O)(=O)O)cccc12)C(C)C) [target peptide substrate used to test for the Serratia marcescens specific protease],cleavage of target peptide substrate (relative fluorescence intensity over time),"[5]; S. marcescens overnight culture in BHI, 20 mM Tris (pH 7.5) with 200 mM NaCl, 37° C., emission 485 nm","reacted with the substrate, giving rise to an increase in fluorescence intensity"
same,cleavage of target peptide substrate (relative fluorescence intensity over time),[6],"None of the other bacterial samples, including the Staphylococcus aureus sample, were distinguishable from the control"
same,fluorescence of biosensor,[7],fluorescence was readily detected
